According to patent publication US4672068A, “Antihypertensive 1,4-dihydropyridines having a conjugated ester” (Fujirebio Kabushiki Kaisha, priority 1984, dated 1987):

Tested on: Male spontaneously hypertensive rats (SHR), arterial blood pressure
Test: Depressor response after intravenous administration (30 μg/kg), Table 1
Type: in vivo, rat
Conditions: for Duration: '90<' means greater than 90
Procedure: Male spontaneously hypertensive rats (SHR) which had mean arterial blood pressures higher than 140 mmHg were used for the experiments. Arterial blood pressure was measured through the catherized artery with a pressure transducer (MPU-0.5, manufactured by Nihon Kohden Kabushiki Kaisha). The catheter was inserted into the abdominal aorta via the median coccygcal artery of SHR under light ether anesthesia. The recordings were made on a rectigraph (manufactured by Sanei Sokki Kabushiki Kaisha). The 1,4-dihydropyridine derivatives prepared in the foregoing examples were administered with catheter which was inserted previously into the caudal vein or duodenum at least two hours after the operation. SHR were restrained with wire mesh cage immediately after the operation. Each derivative to be tested was dissolved in 1.5% PVP/ethanol, and then diluted with 0.9% saline or intravenous administration (30 μg/kg), or suspended in 5% gum arabic solution of intraduodenal administration (1 mg/kg).

| SMILES | The time to reach the lowest BP | ΔBP (Maximum depressor response) | Duration |
| --- | --- | --- | --- |
| CC=CC=CCOC(=O)C1=C(C)NC(C)=C(C(=O)OCC(C)C)C1c1cccc([N+](=O)[O-])c1 (centres unmarked) [Example 76, Isobutyl 2,4-hexadienyl 4-(3-nitrophenyl)-2,6-dimethyl-1,4-dihydropyridine-3,5-dicarboxylate] | 6 min | 32 mmHg |  |
| CCOC(=O)C1=C(C)NC(C)=C(C(=O)OCC=CC=Cc2ccccc2)C1c1cccc([N+](=O)[O-])c1 (centres unmarked) [Example 60, ethyl 5-phenyl-2,4-pentadienyl 4-(3-nitrophenyl)-2,6-dimethyl-1,4-dihydropyridine-3,5-dicarboxylate] | 4.0 min | 60 mmHg | > 90 min |
| COCCOC(=O)C1=C(C)NC(C)=C(C(=O)OCC=CC=Cc2ccccc2)C1c1cccc([N+](=O)[O-])c1 (centres unmarked) [Example 62, 2-methoxyethyl 5-phenyl-2,4-pentadienyl 4-(3-nitrophenyl)-2,6-dimethyl-1,4-dihydropyridine-3,5-dicarboxylate] | 2.0 min | 60 mmHg | > 90 min |
| COCCOC(=O)C1=C(C)NC(C)=C(C(=O)OCC=Cc2ccccc2)C1c1cccc([N+](=O)[O-])c1 (centres unmarked) [Example 13, Cinnamyl 2-methoxyethyl 4-(3-nitrophenyl)-2,6-dimethyl-1,4-dihydropyridine-3,5-dicarboxylate] | 2.0 min | 35 mmHg | > 270 min |
| CC=CC=CCOC(=O)C1=C(C)NC(C)=C(C(=O)OC)C1c1cccc(C(F)(F)F)c1 (centres unmarked) [Example 72, methyl 2,4-hexadienyl 4-(3-trifluoromethylphenyl)-2,6-dimethyl-1,4-dihydropyridine-3,5-dicarboxylate] | 1.5 min | 63 mmHg | > 120 min |
| CC=CC=CCOC(=O)C1=C(C)NC(C)=C(C(=O)OC(C)(C)C)C1c1cccc([N+](=O)[O-])c1 (centres unmarked) [Example 75, tert-butyl 2,4-hexadienyl 4-(3-nitrophenyl)-2,6-dimethyl-1,4-dihydropyridine-3,5-dicarboxylate] | 1 min | 28 mmHg |  |
| CC1=C(C(=O)OCC#Cc2ccccc2)C(c2cccc([N+](=O)[O-])c2)C(C(=O)OCC=Cc2ccccc2)=C(C)N1 (centres unmarked) [Example 46, Cinnamyl phenylpropargyl 4-(3-nitrophenyl)-2,6-dimethyl-1,4-dihydropyridine-3,5-dicarboxylate] | 20 min | 20 mmHg |  |
| CC1=C(C(=O)OCC=Cc2ccccc2)C(c2cccc([N+](=O)[O-])c2)C(C(=O)OCC=Cc2ccccc2)=C(C)N1 (centres unmarked) [Example 45, Dicinnamyl 4-(3-nitrophenyl)-2,6-dimethyl-1,4-dihydropyridine-3,5-dicarboxylate] | 27 min | 32 mmHg | > 90 min |
| COC(=O)C1=C(C)NC(C)=C(C(=O)OC/C=C\C=C\c2ccccc2)C1c1cccc([N+](=O)[O-])c1 (centres unmarked) [Example 59, Methyl (2Z,4E)-5-phenyl-2,4-pentadienyl 4-(3-nitrophenyl)-2,6-dimethyl-1,4-dihydropyridine-3,5-dicarboxylate] | 1.8 min | 56.7 mmHg |  |
| COC(=O)C1=C(C)NC(C)=C(C(=O)OCCC=Cc2ccc(C)cc2)C1c1cccc([N+](=O)[O-])c1 (centres unmarked) [Example 20, 4-(p-methylphenyl)-3-butenyl methyl 4-(3-nitrophenyl)-2,6-dimethyl-1,4-dihydropyridine-3,5-dicarboxylate] | 1.8 min | 52.5 mmHg | 90 min |
